Test results taken from patent US20090306053A1, “Highly selective rho-kinase inhibitor” (priority 2005, published 2009).
Where a name gives a salt, the structure may show the parent alone.

Legend:
Assay type in all cases: biochemical
ROCKII (Rho-kinase) = ROCKII (Rho-kinase) (Homo sapiens, UniProt O75116); experiment: Rho-kinase (ROCKII) assay according to Patent Document 1; parameters: key to Realative Inhibitory Activity ROCKII: relative ratio; ROCKII-inhibiting activity defined as 1.0; conditions: ROCKII-inhibiting activity defined as 1.0 (reference)
Sequence of ROCKII (Rho-kinase) (O75116 whole entry, species assumed): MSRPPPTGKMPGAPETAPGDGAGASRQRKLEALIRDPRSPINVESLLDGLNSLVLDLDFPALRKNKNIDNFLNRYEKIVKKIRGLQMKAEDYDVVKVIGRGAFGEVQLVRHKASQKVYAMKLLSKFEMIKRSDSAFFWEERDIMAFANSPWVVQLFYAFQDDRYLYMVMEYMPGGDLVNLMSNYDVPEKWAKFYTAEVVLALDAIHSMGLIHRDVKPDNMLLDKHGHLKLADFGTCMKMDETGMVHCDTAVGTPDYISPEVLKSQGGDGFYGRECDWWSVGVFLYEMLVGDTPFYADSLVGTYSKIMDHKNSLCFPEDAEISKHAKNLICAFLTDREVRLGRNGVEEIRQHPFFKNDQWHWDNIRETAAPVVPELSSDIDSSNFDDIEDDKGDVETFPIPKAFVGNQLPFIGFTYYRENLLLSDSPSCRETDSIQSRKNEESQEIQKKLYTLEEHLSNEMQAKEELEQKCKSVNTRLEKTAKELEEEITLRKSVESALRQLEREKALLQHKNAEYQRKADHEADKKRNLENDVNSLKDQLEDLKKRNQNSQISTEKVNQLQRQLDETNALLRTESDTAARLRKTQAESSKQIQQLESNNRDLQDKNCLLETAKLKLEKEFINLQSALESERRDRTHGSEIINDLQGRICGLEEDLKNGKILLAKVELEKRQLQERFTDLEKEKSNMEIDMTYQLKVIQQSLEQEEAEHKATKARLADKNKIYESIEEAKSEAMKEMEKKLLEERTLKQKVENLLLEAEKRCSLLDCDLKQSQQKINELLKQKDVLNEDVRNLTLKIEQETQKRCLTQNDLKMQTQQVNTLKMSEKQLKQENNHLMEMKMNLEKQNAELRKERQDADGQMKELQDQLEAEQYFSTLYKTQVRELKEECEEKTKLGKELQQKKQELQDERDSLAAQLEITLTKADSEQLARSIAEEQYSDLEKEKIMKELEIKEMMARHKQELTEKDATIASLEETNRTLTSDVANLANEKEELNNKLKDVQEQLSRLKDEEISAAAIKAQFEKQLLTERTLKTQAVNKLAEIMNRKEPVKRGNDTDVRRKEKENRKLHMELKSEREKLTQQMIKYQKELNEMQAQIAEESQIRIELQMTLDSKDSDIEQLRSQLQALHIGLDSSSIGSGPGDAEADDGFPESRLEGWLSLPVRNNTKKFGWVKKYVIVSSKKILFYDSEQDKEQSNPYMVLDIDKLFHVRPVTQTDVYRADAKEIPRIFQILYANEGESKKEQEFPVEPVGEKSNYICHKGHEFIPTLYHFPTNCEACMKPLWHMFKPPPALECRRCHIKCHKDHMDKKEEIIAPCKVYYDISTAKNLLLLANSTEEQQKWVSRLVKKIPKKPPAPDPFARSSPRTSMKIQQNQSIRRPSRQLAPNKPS
Method: An Rho-kinase assay was carried out according to the method described in Patent Document 1, and the concentration of a compound for inhibiting Rho-kinase activity by 50% (hereinafter referred to as “IC50 value”) was calculated.
(§1) The ROCKII-inhibiting activity of a compound to be tested was defined as 1.0, and the inhibitory activities of the compound against kinases (PKA, PKG, CaMKII, and AuroraA) other than ROCKII were calculated as relative ratios to the ROCKII-inhibiting activity, based on the IC50 values calculated using the above-described evaluation system.

[1] = biological target: T1, Purified bovine PKA (catalyst subunit) (Bos taurus, UniProt P00517); experiment: PKA kinase assay (Kinase-Glo ATP consumption); conditions: relative ratio to ROCKII (=1.0), based on IC50 values
T1 construct: Purified bovine PKA (catalyst subunit, Promega); purchased Promega
Method: Purified bovine PKA (catalyst subunit, Promega) was used to evaluate its activity to phosphorylate a substrate peptide (LRRASLG, Promega).
(§2) In a system of the total volume of 50 μL, the reaction of the above-mentioned enzyme (43 ng) was carried out at room temperature for 20 minutes in the presence of 40 mM of Tris-HCl (pH 7.5), 20 mM of magnesium chloride, 1 mg/mL of BSA, 5 μM of the above peptide, and 1 μM of ATP. After the kinase reaction, the luminescence intensity corresponding to the amount of ATP in the reaction system was measured using a luciferase reagent (Kinase-Glo Luminescent Kinase Assay kit, Promega) with a chemiluminescence measurement apparatus (MicroLumat, Berthold Technologies). The amount of ATP consumed by the phosphorylation reaction was calculated by comparison with the luminescence intensity in the system when the kinase reaction was not carried out.
(§3) With this system, the kinase reaction was carried out in the presence of a compound at various concentrations, and the IC50 value of the compound was determined based on the resulting compound concentration-response curve for ATP consumption.
as §1

Purified rat CaMKII = experiment: CaMKII kinase assay (Kinase-Glo ATP consumption); conditions: relative ratio to ROCKII (=1.0), based on IC50 values
Method: Purified rat CaMKII (containing CaMKIIα and small amounts of β, γ, and δ isoforms, Upstate) was used to evaluate its activity to phosphorylate a substrate peptide (KKALRRQETVDAL, Upstate).
as §2, with “enzyme (33” for “enzyme (43”, “for 60” for “for 20”, “of 50” for “of 40”, “Tris-HCl (pH7.5), 10” for “Tris-HCl (pH 7.5), 20”, “chloride, 2 mM of calcium chloride, 0.04” for “chloride, 1”, “BSA, 16 μg/mL of purified bovine brain calmodulin (Sigma), 0.5 mM of DTT, 50 µM” for “BSA, 5 μM”
as §3, §1

Purified bovine PKGα = biological target: T2, Purified bovine PKGα (Bos taurus, UniProt P00516); experiment: PKG kinase assay (Kinase-Glo ATP consumption); conditions: relative ratio to ROCKII (=1.0), based on IC50 values
T2 construct: Purified bovine PKGα (Promega); purchased Promega
T2 sequence (P00516 1-671): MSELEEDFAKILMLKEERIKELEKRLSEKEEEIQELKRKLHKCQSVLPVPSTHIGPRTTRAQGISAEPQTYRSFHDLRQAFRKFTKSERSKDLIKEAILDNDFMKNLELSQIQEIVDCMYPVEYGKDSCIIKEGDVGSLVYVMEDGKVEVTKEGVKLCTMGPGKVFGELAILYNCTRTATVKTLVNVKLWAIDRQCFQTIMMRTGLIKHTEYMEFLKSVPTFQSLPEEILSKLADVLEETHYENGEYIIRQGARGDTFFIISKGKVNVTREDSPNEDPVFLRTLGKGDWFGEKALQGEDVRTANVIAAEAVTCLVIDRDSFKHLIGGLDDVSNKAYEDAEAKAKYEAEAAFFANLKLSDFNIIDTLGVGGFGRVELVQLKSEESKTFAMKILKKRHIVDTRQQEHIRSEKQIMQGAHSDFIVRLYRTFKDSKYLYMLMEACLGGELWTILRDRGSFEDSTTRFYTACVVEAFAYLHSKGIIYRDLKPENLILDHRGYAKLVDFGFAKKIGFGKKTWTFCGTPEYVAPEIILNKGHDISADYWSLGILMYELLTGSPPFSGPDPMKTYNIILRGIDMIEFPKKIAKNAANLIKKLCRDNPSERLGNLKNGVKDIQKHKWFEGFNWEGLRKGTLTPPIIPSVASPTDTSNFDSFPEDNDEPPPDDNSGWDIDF
Method: Purified bovine PKGα (Promega) was used to evaluate its activity to phosphorylate a substrate peptide (RKISASEF, Promega).
as §2, with “enzyme (64” for “enzyme (43”, “for 80” for “for 20”, “chloride, 10 μM” for “chloride, 1 mg/mL”, “of cGMP (Sigma), 100” for “of BSA, 5”
as §3, §1

[2] = biological target: T3, Recombinant human AuroraA (Homo sapiens, UniProt O14965); experiment: AuroraA kinase assay (Kinase-Glo ATP consumption); parameters: key to Realative Inhibitory Activity AuroraA: ratio relative to ROCKII-inhibiting activity defined as 1.0 (from IC50s); conditions: relative ratio to ROCKII (=1.0), based on IC50 values
T3 construct: purchased Upstate
T3 sequence (O14965 1-403): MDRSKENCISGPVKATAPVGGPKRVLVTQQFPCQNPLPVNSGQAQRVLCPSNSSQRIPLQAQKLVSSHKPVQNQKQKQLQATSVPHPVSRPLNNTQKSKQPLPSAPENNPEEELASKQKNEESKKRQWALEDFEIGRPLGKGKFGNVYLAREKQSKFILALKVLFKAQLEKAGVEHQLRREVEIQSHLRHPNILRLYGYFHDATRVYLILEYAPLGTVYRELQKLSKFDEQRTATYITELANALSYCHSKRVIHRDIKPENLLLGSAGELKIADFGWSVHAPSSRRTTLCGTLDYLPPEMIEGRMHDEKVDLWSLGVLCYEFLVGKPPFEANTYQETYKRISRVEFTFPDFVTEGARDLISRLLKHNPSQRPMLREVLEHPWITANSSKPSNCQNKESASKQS
Method: Recombinant human AuroraA (Upstate) was used to evaluate its activity to phosphorylate a substrate peptide (LRRASLG, Promega) was evaluated.
as §2, with “enzyme (40” for “enzyme (43”, “for 80” for “for 20”, “of MOPS-NaOH” for “of Tris-HCl”, “chloride, 200” for “chloride, 1 mg/mL of BSA, 5”
as §3, §1

`CC(C)[C@@H](N)C(=O)N1CCCN(S(O)(O)c2cccc3cncc(F)c23)[C@@H](C)C1` [Example 6, 2-(S)-1-(4-fluoroisoquinoline-5-sulfonyl)-2-methyl-4-(D-valyl)homopiperazine dihydrochloride] was tested, and the “Realative Inhibitory Activity ROCKII” value (ROCKII (Rho-kinase)) was 1, the “Realative Inhibitory Activity PKA” value [1] was >300 and the “Realative Inhibitory Activity CaMKII” value (Purified rat CaMKII) was >300. The “Realative Inhibitory Activity PKG” value (Purified bovine PKGα) was 30 and the “Realative Inhibitory Activity AuroraA” value [2] was >300.
In the case of “2-(S)-4-(D-alanyl)-1-(4-fluoroisoquinoline-5-sulfonyl)-2-methylhomopiperazine dihydrochloride [Example 4]”, the “Realative Inhibitory Activity ROCKII” value (ROCKII (Rho-kinase)) is reported as 1, the “Realative Inhibitory Activity PKA” value [1] is reported as >300 and the “Realative Inhibitory Activity CaMKII” value (Purified rat CaMKII) is reported as 300. The “Realative Inhibitory Activity PKG” value (Purified bovine PKGα) was 93 and the “Realative Inhibitory Activity AuroraA” value [2] was >300.
For `C[C@H](N)C(=O)N1CCCN(S(O)(O)c2cccc3cncc(F)c23)[C@@H](C)C1` [Example 3, 2-(S)-4-(L-alanyl)-1-(4-fluoroisoquinoline-5-sulfonyl)-2-methylhomopiperazine dihydrochloride], the “Realative Inhibitory Activity ROCKII” value (ROCKII (Rho-kinase)) was 1, the “Realative Inhibitory Activity PKA” value [1] was >300 and the “Realative Inhibitory Activity CaMKII” value (Purified rat CaMKII) was 135. The “Realative Inhibitory Activity PKG” value (Purified bovine PKGα) was 11 and the “Realative Inhibitory Activity AuroraA” value [2] was 145.
For `CC[C@H](N)C(=O)N1CCCN(S(O)(O)c2cccc3cncc(F)c23)[C@@H](C)C1` [Example 11, 2-(S)-4-(L-α-aminobutylyl)-1-(4-fluoroisoquinoline-5-sulfonyl)-2-methylhomopiperazine dihydrochloride], the “Realative Inhibitory Activity ROCKII” value (ROCKII (Rho-kinase)) was 1, the “Realative Inhibitory Activity PKA” value [1] was >300 and the “Realative Inhibitory Activity CaMKII” value (Purified rat CaMKII) was 364. For the same compound, the “Realative Inhibitory Activity PKG” value (Purified bovine PKGα) was 79 and the “Realative Inhibitory Activity AuroraA” value [2] was 210.
In the case of `CC[C@@H](N)C(=O)N1CCCN(S(O)(O)c2cccc3cncc(F)c23)[C@@H](C)C1` [Example 12, 2-(S)-4-(D-α-aminobutylyl)-1-(4-fluoroisoquinoline-5-sulfonyl)-2-methylhomopiperazine dihydrochloride], the “Realative Inhibitory Activity ROCKII” value (ROCKII (Rho-kinase)) is reported as 1, the “Realative Inhibitory Activity PKA” value [1] is reported as >300 and the “Realative Inhibitory Activity CaMKII” value (Purified rat CaMKII) is reported as >300. The “Realative Inhibitory Activity PKG” value (Purified bovine PKGα) was 92 and the “Realative Inhibitory Activity AuroraA” value [2] was 244.
